Experiments:
[1] = test system: hybridoma cell line F; experiment: Harvest antibody titre, hybridoma cell line F; type: cell-based; conditions: SFM + 5% FCS, 0.50 mM butyrate, control 90
Description: […] Cells were cultured in either roller bottles or in shake-flasks, as in Example 1. Sodium butyrate was added to cultures immediately after inoculation.

[2] = test system: hybridoma cell line K; experiment: Harvest antibody titre, hybridoma cell line K; type: cell-based; conditions: SFM + 1% FCS, 0.50 mM butyrate, control 15
Description: (§1) Hybridoma cells were grown in suspension culture in either serum-free medium (see Example 1) or in DMEM supplemented with 10% (v/v), heat inactivated foetal calf serum. Cells were cultured in either roller bottles or in shake-flasks, as in Example 1. Sodium butyrate was added to cultures immediately after inoculation.

[3] = test system: hybridoma cell line C; experiment: Harvest antibody titre, hybridoma cell line C; type: cell-based; conditions: DMEM + 10% FCS, 0.50 mM butyrate, control 51
Description: as §1

[4] = test system: IgM secreting mouse hybridoma cell line NB1/19; experiment: Effect of sodium butyrate on hybridoma cell growth and antibody production, serum-free medium, shake flasks (ELISA); type: cell-based
Description: (§2) The IgM secreting mouse hybridoma cell line NB1/19 was grown in suspension culture in Dulbeccos Modified Eagles Minimum (DMEM) serum-free medium containing albumin, insulin, transferrin, gentamycin and other additives as required to cultivate cells in suspension culture. The NB1/19 cell line produces a mouse monoclonal antibody having specificity for an antigenic determinant of human B-type blood cells. The preparation of this call line is described in detail in the specification of British Patent GB 2097425B. It will be appreciated, however, that other hybridoma cell lines may be used in place of this particular cell line as appropriate in this and other examples.
The cells were grown to a viable cell density of 1.0-1.5×10^6 cells/ml. Viable cell density was determined by counting the number of cells which exclude trypan blue, a staining agent. A sample of the suspension culture was diluted in a serum-free medium to a density of about 1.3×10^5 cells/ml. Aliquots of 50 ml in volume were dispensed into shake flasks and sodium butyrate added at concentrations of 0.1 mM, 0.3 mM, 0.5 mM and 1.0 mM.
(§3) The shake flasks were gassed with 5% CO2-95% air, and sealed and incubated with shaking at 37° C. for up to 207 hours. (Table 1). Samples ([…]) were removed from the culture by pipette. 100 μl was used to determine viable cell count and the reminder centrifuged at 300×g for five minutes. Supernatants were stored at −20° C. prior to antibody determination by enzyme linked immunosorbent assay (ELISA).

[5] = test system: hybridoma cells (as Example 1, NB1/19); experiment: Butyrate-enhanced antibody production in hybridoma cells cultured in serum supplemented medium; type: cell-based, mouse; conditions: DMEM + 10% foetal calf serum
Description: as §2
The cells were grown to a viable cell density of 1.0-1.5×10^6 cells/ml. Viable cell density was determined by counting the number of cells which exclude trypan blue, a staining agent. A sample of the suspension culture was diluted in a serum-free medium to a density of about 1.3×10^5 cells/ml. […]
as §3
The protocol for this experiment is similar to that outlined in Example 1, except that the cells were cultured in Dulbeccos Modified Eagles Minimum medium supplemented with 10% foetal calf serum.

[6] = test system: hybridoma cell line L; experiment: Harvest antibody titre, hybridoma cell line L; type: cell-based; conditions: SFM, control 34
Description: as §1

In the case of CCCC(=O)[O-].[Na+] [sodium butyrate], the “HARVEST ANTIBODY TITER” value [1] was 132 mg/L, the “HARVEST ANTIBODY TITER” value [2] was 26 mg/L and the “HARVEST ANTIBODY TITER” value [3] was 71 mg/L. For the same compound, the “Average specific rate of antibody production” value (shortened to “Average specific rate”) ([4]; 0.1 mM sodium butyrate) was 26 μg/10^6 cells/day, the antibody concentration ([4]; 0.1 mM sodium butyrate, 41 hours) was 34 µg/mL and the antibody concentration ([4]; 0.1 mM sodium butyrate, 87 hours) was 90 µg/mL. The antibody concentration ([4]; 0.1 mM sodium butyrate, 137 hours) was 128 µg/mL, the “Average specific rate” value ([4]; 0.3 mM sodium butyrate) was 26 μg/10^6 cells/day and the antibody concentration ([4]; 0.3 mM sodium butyrate, 41 hours) was 41 µg/mL. The antibody concentration ([4]; 0.3 mM sodium butyrate, 87 hours) was 114 µg/mL, the antibody concentration ([4]; 0.3 mM sodium butyrate, 137 hours) was 147 µg/mL and the “Average specific rate” value ([4]; 0.5 mM sodium butyrate) was 31 μg/10^6 cells/day. It also gave an antibody concentration ([4]; 0.5 mM sodium butyrate, 41 hours) of 50 µg/mL, an antibody concentration ([4]; 0.5 mM sodium butyrate, 87 hours) of 173 µg/mL and an antibody concentration ([4]; 0.5 mM sodium butyrate, 137 hours) of 173 µg/mL. The “Average specific rate” value ([4]; 1.0 mM sodium butyrate) was 52 μg/10^6 cells/day, the antibody concentration ([4]; 1.0 mM sodium butyrate, 41 hours) was 39 µg/mL and the antibody concentration ([4]; 1.0 mM sodium butyrate, 137 hours) was 180 µg/mL. For the same compound, the antibody concentration ([4]; 1.0 mM sodium butyrate, 207 hours) was 256 µg/mL, the “Average specific rate” value ([5]; 0.5 mM sodium butyrate) was 39 μg/10^6 cells/day and the Maximum antibody concentration ([5]; 0.5 mM sodium butyrate) was 54 µg/mL. For the same compound, the “Average specific rate” value ([5]; 0.75 mM sodium butyrate) was 69 μg/10^6 cells/day, the Maximum antibody concentration ([5]; 0.75 mM sodium butyrate) was 55 µg/mL and the “HARVEST ANTIBODY TITER” value ([6]; 0.25 mM butyrate) was 50 mg/L. The “HARVEST ANTIBODY TITER” value ([6]; 0.50 mM butyrate) was 58 mg/L.

Reference: patent US6660501B2, “Production of proteins by cell culture” (Lonza Group, AG, priority 1986, dated 2003)
